Experimental data taken from publication PMC9456008, “Enantiocontrolled Preparation of ϒ-Substituted Cyclohexenones: Synthesis and Kinase Activity Assays of Cyclopropyl-Fused Cyclohexane Nucleosides” (International Journal of Molecular Sciences, 2022).
Entries after “also recorded” stand apart in the source; their conditions may differ.

Legend:
[1] = system: human embryonic lung (HEL) fibroblasts; test: Cytotoxicity in HEL cell cultures (alteration of cell morphology); conditions: microscopically detectable alteration of normal cell morphology
Human TK-2 = biological target: T1, Human TK-2 (Homo sapiens, UniProt O00142); test: Thymidine kinase assay using [CH3-3H]dThd as natural substrate, TK-2; format: biochemical; conditions: for IC50: 50% inhibitory concentration for TK-catalyzed conversion of [3H]dThd to its 5'-monophosphate, 1 µM dThd, 37 °C, 30 min
T1 sequence (O00142 34-265): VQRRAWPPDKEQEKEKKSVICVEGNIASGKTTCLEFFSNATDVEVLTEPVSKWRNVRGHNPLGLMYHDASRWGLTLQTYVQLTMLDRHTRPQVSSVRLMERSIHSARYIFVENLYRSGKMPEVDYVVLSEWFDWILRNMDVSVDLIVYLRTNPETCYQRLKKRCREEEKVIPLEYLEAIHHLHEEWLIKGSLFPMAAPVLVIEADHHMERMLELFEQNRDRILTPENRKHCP
Protocol: (§1) Thymidine Kinase Assay Using [CH3-^3H]dThd as the Natural Substrate. The activity of recombinant thymidine kinase 1 (TK-1), TK-2, and herpes simplex virus-1 (HSV-1) TK, and the 50% inhibitory concentration of the test compounds, were assayed in a 50-μL reaction mixture containing 50 mM Tris/HCl, pH 8.0, 2.5 mM MgCl2, 10 mM dithiothreitol, 0.5 mM CHAPS, 3 mg/mL bovine serum albumin, 2.5 mM ATP, 1 µM [methyl-^3H]dThd, and enzyme. The samples were incubated at 37 °C for 30 min in the presence or absence of different concentrations (five-fold dilutions) of the test compounds. At this time, the enzyme reaction still proceeded linearly. Aliquots of 45 µL of the reaction mixtures were spotted on Whatman DE-81 filter paper disks (Whatman, Clifton, NJ, USA). The filters were washed three times for 5 min each in 1 mM ammonium formate, once for 1 min in water, and once for 5 min in ethanol. The radioactivity was determined by scintillation counting.

HSV-1 TK [2] = biological target: T2, HSV-1 TK (Human herpesvirus 1, UniProt P0DTH5); test: Thymidine kinase assay using [CH3-3H]dThd as natural substrate, HSV-1 TK; format: biochemical
Protocol: as §1

Human TK-1 = biological target: T3, Human TK-1 (Homo sapiens, UniProt P04183); test: Thymidine kinase assay using [CH3-3H]dThd as natural substrate, TK-1; format: biochemical; conditions: for IC50: 50% inhibitory concentration for TK-catalyzed conversion of [3H]dThd to its 5'-monophosphate, 1 µM dThd, 37 °C, 30 min
T3 sequence (P04183 1-234): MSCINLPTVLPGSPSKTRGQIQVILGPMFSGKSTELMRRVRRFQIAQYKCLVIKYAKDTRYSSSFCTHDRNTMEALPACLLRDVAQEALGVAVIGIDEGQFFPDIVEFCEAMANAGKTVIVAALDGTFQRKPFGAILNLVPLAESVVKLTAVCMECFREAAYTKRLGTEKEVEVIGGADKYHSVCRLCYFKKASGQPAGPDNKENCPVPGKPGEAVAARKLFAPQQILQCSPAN
Protocol: as §1

HSV-1 TK [3] = biological target: T2, HSV-1 TK; test: Substrate activity for HSV-1 TK by HPLC technology; format: biochemical, herpes simplex virus-1
From the text: Therefore, to evaluate this last point, we performed further studies to test the suitability of these compounds to pass the usual rate-limiting first phosphorylation step. Thus, the affinity of the synthesized compounds 2a–e for the cellular and HSV-1 thymidine kinases (TKs) were investigated (Table 2). […] It was expected that this cytosine analogue might show affinity for HSV-1 TK, as the natural nucleoside (2-deoxycytidine, 2-dC) is known to be recognized by several kinases, including HSV-1 TK; however, that was apparently not the case. […] Therefore, because some of the synthesized analogues were recognized by the virus-encoded nucleoside kinase, the lack of antiherpetic activity could be attributed to the lack of further conversion of the 5′-monophosphate derivative to the 5′-triphosphate or to a low affinity, if any, of the 5′-triphosphate metabolite to the virus-encoded DNA polymerase.

T2 sequence (P0DTH5 whole entry): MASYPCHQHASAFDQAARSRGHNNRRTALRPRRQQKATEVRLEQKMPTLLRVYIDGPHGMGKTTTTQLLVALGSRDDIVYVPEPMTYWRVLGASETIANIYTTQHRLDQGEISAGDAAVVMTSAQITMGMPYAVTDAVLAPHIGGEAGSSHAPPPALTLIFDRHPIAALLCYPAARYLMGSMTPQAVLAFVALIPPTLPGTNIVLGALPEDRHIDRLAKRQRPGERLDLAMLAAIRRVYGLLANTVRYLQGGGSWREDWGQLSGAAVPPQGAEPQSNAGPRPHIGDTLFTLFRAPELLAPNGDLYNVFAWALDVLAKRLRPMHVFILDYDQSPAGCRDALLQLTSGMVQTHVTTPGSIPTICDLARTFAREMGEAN

Row | SMILES | Cytotoxicity, minimum cytotoxic concentration [1] [µM] | IC50 (Human TK-2) [µM] | IC50 (HSV-1 TK [2]) [µM] | IC50 (Human TK-1) [µM] | Affinity for HSV-1 TK (in words) (HSV-1 TK [2]) | Affinity for human TK-1 / human cellular kinases (in words) (Human TK-1) | Affinity for mitochondrial TK-2 (in words) (Human TK-2) | Substrate activity for HSV-1 TK, conversion to the monophosphate metabolite (HSV-1 TK [3])
1 | O=c1[nH]c(=O)n([C@H]2C[C@H](O)[C@@H](CO)O2)cc1/C=C/Br [Brivudin] | > 250 |  |  |  |  |  |  | 
2 | O=c1ccn([C@H]2CC[C@@H](CO)[C@@H]3C[C@@H]32)c(=O)[nH]1 [Compound 2c] |  | > 846 | > 846 | > 846 |  |  |  | 
3 | Nc1ccn(C2CCC(CO)C3CC32)c(=O)n1 (stereo not drawn) [Compound 2e, 4-Amino-1-[(1′S,2′S,5′R,6′R)-5′-(hydroxymethyl)bicyclo [4.1.0]hept-2′-yl]pyrimidin-2(1H)-one] | > 100 | > 425 | > 425 | > 425 | did not display affinity |  |  | 
4 | Nc1nc2c(ncn2COCCO)c(=O)[nH]1 [Acyclovir] | > 250 |  |  |  |  |  |  | 
5 | Nc1ncnc2c1ncn2[C@H]1CC[C@@H](CO)[C@@H]2C[C@@H]21 [Compound 2a] |  | > 771 | 578 | > 771 |  |  |  | 
6 | Cc1cn([C@H]2CC[C@@H](CO)[C@@H]3C[C@@H]32)c(=O)[nH]c1=O [Compound 2d] |  | > 799 | 208 | > 799 | display affinity | not for human TK-1 |  | 
7 | Nc1nc2c(ncn2[C@H]2CC[C@@H](CO)[C@@H]3C[C@@H]32)c(=O)[nH]1 [Compound 2b] |  | 338 | 5.81 | > 726 | excellent affinity; also recorded: display affinity | not for human TK-1 | some marginal affinity | good substrate
8 | Nc1ccn(C[C@@H](CO)OCP(=O)(O)O)c(=O)n1 [Cidofovir] | > 250 |  |  |  |  |  |  | 
9 | Nc1nc(O)c2ncn(COC(CO)CO)c2n1 [Ganciclovir] | > 100 |  |  |  |  |  |  | 
